{
  "source": "ChEMBL document CHEMBL1152004",
  "about": "“Chloramphenicol: High dilution FT-IR evidence for an intramolecular hydrogen bond” (Bioorg Med Chem Lett, 1991)",
  "biological_target": "Ribosome",
  "assay": "Inhibition of protein biosynthesis at the level of the peptidyl transferase center of the 50 s ribosomal subunit",
  "assay_type": "subcellular",
  "data": [
    {"smiles": "O=C(N[C@H](CO)[C@H](O)c1ccc([N+](=O)[O-])cc1)C(Cl)Cl", "note": "[CHLORAMPHENICOL]", "values": [
      {"measurement": "Kd", "value": "~1000", "unit": "nM"}
    ]}
  ]
}
